Tests used:
Aβ (1-42) fibril = Aβ (1-42) fibril (Homo sapiens, UniProt P05067); experiment: in vitro sink-like Aβ assay: Aβ dissolved from fibril in presence of compound, Aβ ELISA of supernatant; format: biochemical; settings: Aβ (1-42) fibril pellets, PBS containing compound, 37° C. for one day, supernatant by Aβ ELISA; control (PBS without compound) = 1
Experimental: Sandwich ELISA for Aβ (1-40) and Aβ (1-42) was performed using an Aβ (1-40) ELISA kit and Aβ (1-42) ELISA kit (Biosoure, IBL, Signet Laboratories and the like). […] The peptide was incubated for several days at 37° C. until fibrillization was completed. After centrifugation at 22° C. (15,000×g, 10 min), the supernatant was removed. The obtained pellets were gradually and carefully washed 3 times with PBS. Fresh PBS (20 μl) was carefully and gradually added to the pellets. The sample was incubated at 37° C. for one day. After centrifugation (15,000×g, 10 min) at 22° C., the supernatant was removed. […] The sample was incubated at 37° C. for one day.

tau = settings: Taniguchi et al., J Biol Chem 2005; cited from earlier work
[1] = system: protease-resistant protein (PrP-res); settings: cited from earlier work
Aβ = settings: in vitro; Ono, Biochim Biophys Acta 2004; cited from earlier work

Chain of Aβ (1-42) fibril (P05067 672-713): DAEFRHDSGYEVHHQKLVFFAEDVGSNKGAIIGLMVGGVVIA

## CNc1ccc2nc3ccc(=[N+](C)C)cc-3sc2c1.[Cl-] [azure B]
Aβ (1-42) fibril
  average (ratio of Aβ dissolved from fibril when the control is 1): 2.1701
tau
  inhibition of tau filament formation: inhibit tau filament formation

## COc1cc(/C=C/C(=O)CC(=O)/C=C/c2ccc(O)c(OC)c2)ccc1O [curcumin]
Aβ (1-42) fibril
  average (ratio of Aβ dissolved from fibril when the control is 1): 2.4691

## CCN(CCO)c1ccc(/N=N/c2sc3cc(OC)ccc3[n+]2C)cc1 [basic blue 41]
Aβ (1-42) fibril
  average (ratio of Aβ dissolved from fibril when the control is 1): 2.299

## ferric dehydroporphyrin IX
Aβ (1-42) fibril
  average (ratio of Aβ dissolved from fibril when the control is 1): 1.4124
tau
  inhibition of tau filament formation: inhibits tau filament formation
[1]
  inhibition of formation of protease-resistant protein (PrP-res): inhibit in vitro the formation of a protease-resistant protein (PrP-res)

## O=c1c(O)c(-c2cc(O)c(O)c(O)c2)oc2cc(O)cc(O)c12 [myricetin]
Aβ
  inhibitory action on the formation or elongation of Aβ: in vitro inhibitory action on the formation or elongation of Aβ
Aβ (1-42) fibril
  average (ratio of Aβ dissolved from fibril when the control is 1): 1.3196

## O=C(OC[C@H]1O[C@@H](OC(=O)c2cc(O)c(O)c(OC(=O)c3cc(O)c(O)c(O)c3)c2)[C@H](OC(=O)c2cc(O)c(O)c(OC(=O)c3cc(O)c(O)c(O)c3)c2)[C@@H](OC(=O)c2cc(O)c(O)c(OC(=O)c3cc(O)c(O)c(O)c3)c2)[C@@H]1OC(=O)c1cc(O)c(O)c(OC(=O)c2cc(O)c(O)c(O)c2)c1)c1cc(O)c(O)c(OC(=O)c2cc(O)c(O)c(O)c2)c1 [tannic acid]
Aβ
  inhibitory action on the formation or elongation of Aβ: in vitro inhibitory action on the formation or elongation of Aβ
Aβ (1-42) fibril
  average (ratio of Aβ dissolved from fibril when the control is 1): 1.3969

From patent US20090087916A1, “Assay method for identifying drug candidate” (AnGesMG, Inc., priority 2004, published 2009)
